This note sets out measurements from publication PMC3925040 (British Journal of Pharmacology, 2014).

In assay [1] the target is T1, transient receptor potential melastatin 3 (TRPM3) (Mus musculus, UniProt J9SQF3). In words: Fura2 Ca2+ imaging in HEK293 cells, inhibition of PS response at […]. It counts as cell-based.
In assay [2] the target is T1, transient receptor potential melastatin 3 (TRPM3). As to the kind of experiment: whole-cell patch clamp inhibition of PS-evoked current in HEK293 cells. In kind it is cell-based. Conditions: HEK293, read-out: % inhibition at 21 μM.

T1 sequence (J9SQF3 1-1709 isoform J9SQF3-12): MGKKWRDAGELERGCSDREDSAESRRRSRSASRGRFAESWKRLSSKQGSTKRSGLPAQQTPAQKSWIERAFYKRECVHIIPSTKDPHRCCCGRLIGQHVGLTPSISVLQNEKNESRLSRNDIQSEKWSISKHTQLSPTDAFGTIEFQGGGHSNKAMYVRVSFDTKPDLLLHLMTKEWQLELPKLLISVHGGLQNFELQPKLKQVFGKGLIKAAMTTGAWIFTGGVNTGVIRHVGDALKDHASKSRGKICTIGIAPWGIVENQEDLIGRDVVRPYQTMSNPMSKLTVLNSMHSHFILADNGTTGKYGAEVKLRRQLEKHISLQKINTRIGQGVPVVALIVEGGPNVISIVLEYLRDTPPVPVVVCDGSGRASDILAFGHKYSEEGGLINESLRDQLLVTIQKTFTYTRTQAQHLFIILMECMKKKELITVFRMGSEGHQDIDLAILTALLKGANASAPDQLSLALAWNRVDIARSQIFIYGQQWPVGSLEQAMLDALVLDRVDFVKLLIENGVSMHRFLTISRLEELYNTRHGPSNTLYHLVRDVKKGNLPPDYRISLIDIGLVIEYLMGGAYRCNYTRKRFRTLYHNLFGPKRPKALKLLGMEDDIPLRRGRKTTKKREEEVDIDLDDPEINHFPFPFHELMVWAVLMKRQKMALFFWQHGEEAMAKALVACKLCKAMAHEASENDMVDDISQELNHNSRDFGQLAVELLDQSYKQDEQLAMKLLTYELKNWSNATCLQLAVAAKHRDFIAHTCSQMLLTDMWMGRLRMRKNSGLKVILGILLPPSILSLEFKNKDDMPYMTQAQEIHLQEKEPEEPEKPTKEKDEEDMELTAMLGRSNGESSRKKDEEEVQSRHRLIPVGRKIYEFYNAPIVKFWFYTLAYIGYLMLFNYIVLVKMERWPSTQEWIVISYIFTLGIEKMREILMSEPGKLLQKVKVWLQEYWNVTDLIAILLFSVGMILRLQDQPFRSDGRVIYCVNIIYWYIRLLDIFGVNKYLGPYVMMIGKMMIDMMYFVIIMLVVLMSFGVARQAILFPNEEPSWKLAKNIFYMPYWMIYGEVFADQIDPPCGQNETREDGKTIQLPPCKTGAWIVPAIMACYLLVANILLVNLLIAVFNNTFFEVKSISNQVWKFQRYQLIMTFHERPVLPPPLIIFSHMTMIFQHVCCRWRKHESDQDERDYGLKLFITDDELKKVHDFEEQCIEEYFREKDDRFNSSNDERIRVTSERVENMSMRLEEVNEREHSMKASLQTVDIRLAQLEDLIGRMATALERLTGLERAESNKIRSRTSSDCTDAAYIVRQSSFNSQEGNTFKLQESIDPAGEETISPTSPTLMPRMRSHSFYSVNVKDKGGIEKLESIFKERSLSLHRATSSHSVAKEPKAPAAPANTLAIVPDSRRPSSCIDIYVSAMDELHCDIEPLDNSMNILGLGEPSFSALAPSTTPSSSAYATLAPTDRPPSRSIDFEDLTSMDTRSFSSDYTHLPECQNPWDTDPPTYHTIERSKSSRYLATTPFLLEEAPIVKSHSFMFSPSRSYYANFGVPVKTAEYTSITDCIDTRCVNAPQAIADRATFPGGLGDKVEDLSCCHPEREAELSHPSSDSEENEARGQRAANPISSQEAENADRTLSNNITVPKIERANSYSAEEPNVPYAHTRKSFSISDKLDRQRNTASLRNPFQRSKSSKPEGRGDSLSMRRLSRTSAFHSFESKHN

In the case of `COC(=O)C1=C(C)NC(C)=C(C(=O)OCCN(C)Cc2ccccc2)C1c1cccc([N+](=O)[O-])c1` (centres unmarked) [Nic, nicardipine], in assay [1], the “Fura2 Ca2+ imaging in HEK293 cells, inhibition of PS response at 50 μM” value is on record as “nicardipine also inhibited PS-induced TRPM3 activation”. Consider `COCCOC(=O)C1=C(C)NC(C)=C(C(=O)OC(C)C)C1c1cccc([N+](=O)[O-])c1` (centres unmarked) [nimodipine], for which the inhibition at 21 µM in assay [2] was found to be 70.2%.
